# Laboratory results from patent publication US9695155B2, “Herbicidal substituted pyrimidinyloxy benzene compounds” (E. I. DU PONT DE NEMOURS AND COMPANY, priority 2013, dated 2017).
# What was measured:
# field bindweed = assay: Test E postemergence; assay type: in vivo, Convolvulus arvensis
# From the text: Seeds of plant species selected from corn (Zea mays), soybean (Glycine max), velvetleaf (Abutilon theophrasti), lambsquarters (Chenopodium album), wild poinsettia (Euphorbia heterophylla), palmer pigweed (Amaranthus palmeri), waterhemp (common waterhemp, Amaranthus rudis), surinam grass (Brachiaria decumbens), large (Lg) crabgrass (Digitaria sanguinalis), Brazilian crabgrass (Digitaria horizontalis), fall panicum (Panicum dichotomiflorum), giant foxtail (Setaria faberii), green foxtail (Setaria viridis), goosegrass (Eleusine indica), johnsongrass (Sorghum halepense), ragweed (common ragweed, Ambrosia elatior), barnyardgrass (Echinochloa crus-galli), sandbur (southern sandbur, Cenchrus echinatus), arrowleaf sida (Sida rhombifolia), Italian ryegrass (Lolium multiflorum), dayflower (Virginia (VA) dayflower, Commelina virginica), field bindweed (Convolvulus arvensis), morningglory (Ipomoea coccinea), nightshade (eastern black nightshade, Solanum ptycanthum), kochia (Kochia scoparia), yellow nutsedge (Cyperus esculentus), cocklebur (common cocklebur, Xanthium strumarium), smartweed (ladysthumb smartweed, and hairy beggarticks (Bidens pilosa), were planted into a silt loam soil and treated preemergence with test chemicals formulated in a non-phytotoxic solvent mixture which included a surfactant.
# At the same time, plants from these crop and weed species and also horseweed (Canada horseweed, Conyza canadensis), waterhemp_RES1, (ALS & Triazine resistant common waterhemp, Amaranthus rudis), and waterhemp_RES2, (ALS & HPPD resistant common waterhemp, Amaranthus rudis) were planted in pots containing Redi-Earth® planting medium (Scotts Company, 14111 Scottslawn Road, Marysville, Ohio 43041) comprising spaghnum peat moss, vermiculite, wetting agent and starter nutrients were treated with postemergence applications of test chemicals formulated in the same manner. Plants ranged in height from 2 to 18 cm for postemergence treatments (1- to 4-leaf stage). Treated plants and controls were maintained in a greenhouse for 14 to 21 days, after which time all species were compared to controls and visually evaluated. Plant response ratings, summarized in Table E, are based on a scale of 0 to 100 where 0 is no effect and 100 is complete control. A dash (-) response means no test result.
# speedwell = assay: Test D preemergence; assay type: in vivo, Veronica persica; conditions: Veronica persica, pre-emergence
# Method in brief: (§1)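 Species were sown in silt loam for preemergence treatment, or grown in peat-based medium to the 1–4-leaf stage (2–18 cm) for postemergence sprays. Test chemicals were formulated in a non-phytotoxic solvent mixture with surfactant. After 7–21 days in a controlled environment, plants were rated visually against controls on a 0 (no effect) to 100 (complete control) scale.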
# bluegrass [1] = assay: Test D preemergence; assay type: in vivo, Poa annua; conditions: Poa annua, pre-emergence
# Method in brief: as §1
# pigweed = assay: Test D postemergence; assay type: in vivo, Amaranthus retroflexus; conditions: Amaranthus retroflexus, post-emergence
# Method in brief: as §1
# Italian ryegrass = assay: Test D postemergence; assay type: in vivo, Lolium multiflorum; conditions: Lolium multiflorum, post-emergence
# Method in brief: as §1
# wild mustard = assay: Test D postemergence; assay type: in vivo, Sinapis arvensis; conditions: Brassica, post-emergence
# Method in brief: as §1
# oilseed rape = assay: Test D preemergence; assay type: in vivo, Brassica napus; conditions: Brassica napus, pre-emergence
# Method in brief: as §1
# bluegrass [2] = assay: Test D postemergence; assay type: in vivo, Poa annua; conditions: Poa annua, post-emergence, Postemergence, scale 0 to 100 (0 no effect, 100 complete control), read-out: Plant response rating, Bluegrass
# Method in brief: as §1
# wild buckwheat [3] = assay: Test D preemergence; assay type: in vivo, Polygonum convolvulus; conditions: Fallopia convolvulus, pre-emergence
# Method in brief: as §1
# deadnettle = assay: Test D postemergence; assay type: in vivo, Lamium amplexicaule; conditions: Lamium amplexicaule, post-emergence
# Method in brief: as §1
# bromegrass, downy = assay: Test D postemergence; assay type: in vivo, Bromus tectorum; conditions: Bromus tectorum, post-emergence, Postemergence, scale 0 to 100 (0 no effect, 100 complete control), read-out: Plant response rating, Bromegrass, Downy
# Method in brief: as §1
# chamomile = assay: Test D preemergence; assay type: in vivo, Matricaria inodora; conditions: Tripleurospermum inodorum, pre-emergence
# Method in brief: as §1
# wild buckwheat [4] = assay: Test D postemergence; assay type: in vivo, Polygonum convolvulus; conditions: Fallopia convolvulus, post-emergence, Postemergence, scale 0 to 100 (0 no effect, 100 complete control), read-out: Plant response rating, Buckwheat, Wild
# Method in brief: as §1
# [5] = Postemergence, 31 g ai/ha, scale 0 to 100
# [6] = Postemergence, 62 g ai/ha, scale 0 to 100
# [7] = Postemergence, 125 g ai/ha, scale 0 to 100
# [8] = postemergence, 16 g ai/ha, scale 0 to 100, 0 no effect, 100 complete control
compound,measurement,setting,value
FC(F)(F)c1cnn(-c2ccccc2Oc2ncc(Cl)cn2)c1 [Compound 16],"Plant response rating, Field Bindweed",field bindweed; [5],30
same,"Plant response rating, Field Bindweed",field bindweed; [6],40
same,"Plant response rating, Field Bindweed",field bindweed; [7],50
same,"Plant response rating, Field Bindweed","field bindweed; Postemergence, 250 g ai/ha, scale 0 to 100",60
same,"Plant response rating, Field Bindweed",field bindweed; [8],10
Clc1cnc(Oc2cccc(Br)c2-n2cc(Br)cn2)nc1 [Compound 65],"Plant response rating, Field Bindweed",field bindweed; [5],20
same,"Plant response rating, Field Bindweed",field bindweed; [6],40
same,"Plant response rating, Field Bindweed",field bindweed; [7],40
same,"Plant response rating, Field Bindweed","field bindweed; postemergence, 8 g ai/ha, scale 0 to 100, 0 no effect, 100 complete control",0
same,"Plant response rating, Field Bindweed",field bindweed; [8],10
"Fc1cccc(Oc2ncc(Cl)cn2)c1-n1cc(Br)cn1 [Compound 178, 2-[2-(4-bromo-1H-pyrazol-1-yl)-3-fluorophenoxy]-5-chloropyrimidine]",pest or weed control at 16 g/ha,"speedwell; 16 g ai/ha, scale 0 (no effect) to 100 (complete control), read-out: Plant response rating, Speedwell",100%
same,pest or weed control at 31 g/ha,"speedwell; 31 g ai/ha, scale 0 (no effect) to 100 (complete control), read-out: Plant response rating, Speedwell",100%
same,pest or weed control at 62 g/ha,"speedwell; 62 g ai/ha, scale 0-100, read-out: Plant response rating, Speedwell",100%
same,pest or weed control at 125 g/ha,"speedwell; 125 g ai/ha, scale 0-100, read-out: Plant response rating, Speedwell",100%
same,pest or weed control at 16 g/ha,"bluegrass [1]; 16 g ai/ha, scale 0 (no effect) to 100 (complete control), read-out: Plant response rating, Bluegrass",0%
same,pest or weed control at 31 g/ha,"bluegrass [1]; 31 g ai/ha, scale 0-100, read-out: Plant response rating, Bluegrass",10%
same,pest or weed control at 62 g/ha,"bluegrass [1]; 62 g ai/ha, scale 0-100, read-out: Plant response rating, Bluegrass",20%
same,pest or weed control at 125 g/ha,"bluegrass [1]; 125 g ai/ha, scale 0-100, read-out: Plant response rating, Bluegrass",70%
same,pest or weed control at 16 g/ha,"pigweed; 16 g ai/ha, scale 0-100, read-out: Plant response rating, Pigweed",75%
same,pest or weed control at 31 g/ha,"pigweed; 31 g ai/ha, scale 0 to 100 (0 no effect, 100 complete control), read-out: Plant response rating, Pigweed",80%
same,pest or weed control at 62 g/ha,"pigweed; 62 g ai/ha, scale 0 to 100 (0 no effect, 100 complete control), read-out: Plant response rating, Pigweed",85%
same,pest or weed control at 125 g/ha,"pigweed; 125 g ai/ha, scale 0 to 100 (0 no effect, 100 complete control), read-out: Plant response rating, Pigweed",90%
same,pest or weed control at 16 g/ha,"Italian ryegrass; 16 g ai/ha, scale 0-100, read-out: Plant response rating, Ryegrass, Italian",0%
same,pest or weed control at 31 g/ha,"Italian ryegrass; 31 g ai/ha, scale 0 to 100 (0 no effect, 100 complete control), read-out: Plant response rating, Ryegrass, Italian",0%
same,pest or weed control at 62 g/ha,"Italian ryegrass; 62 g ai/ha, scale 0 to 100 (0 no effect, 100 complete control), read-out: Plant response rating, Ryegrass, Italian",5%
same,pest or weed control at 125 g/ha,"Italian ryegrass; 125 g ai/ha, scale 0 to 100 (0 no effect, 100 complete control), read-out: Plant response rating, Ryegrass, Italian",15%
same,pest or weed control at 16 g/ha,"wild mustard; 16 g ai/ha, scale 0-100, read-out: Plant response rating, Mustard, Wild",70%
same,pest or weed control at 31 g/ha,"wild mustard; 31 g ai/ha, scale 0 to 100 (0 no effect, 100 complete control), read-out: Plant response rating, Mustard, Wild",75%
same,pest or weed control at 62 g/ha,"wild mustard; 62 g ai/ha, scale 0 to 100 (0 no effect, 100 complete control), read-out: Plant response rating, Mustard, Wild",75%
same,pest or weed control at 125 g/ha,"wild mustard; 125 g ai/ha, scale 0 to 100 (0 no effect, 100 complete control), read-out: Plant response rating, Mustard, Wild",100%
same,plant injury at 16 g/ha,"oilseed rape; 16 g ai/ha, scale 0 (no effect) to 100 (complete control), read-out: Plant response rating, Oilseed Rape",65%
same,plant injury at 31 g/ha,"oilseed rape; 31 g ai/ha, scale 0-100, read-out: Plant response rating, Oilseed Rape",75%
same,plant injury at 125 g/ha,"oilseed rape; 125 g ai/ha, scale 0-100, read-out: Plant response rating, Oilseed Rape",100%
same,pest or weed control at 16 g/ha,bluegrass [2]; 16 g ai/ha,20%
same,pest or weed control at 31 g/ha,bluegrass [2]; 31 g ai/ha,30%
same,pest or weed control at 62 g/ha,bluegrass [2]; 62 g ai/ha,35%
same,pest or weed control at 125 g/ha,bluegrass [2]; 125 g ai/ha,55%
same,pest or weed control at 16 g/ha,"wild buckwheat [3]; 16 g ai/ha, scale 0 (no effect) to 100 (complete control), read-out: Plant response rating, Buckwheat, Wild",15%
same,pest or weed control at 31 g/ha,"wild buckwheat [3]; 31 g ai/ha, scale 0-100, read-out: Plant response rating, Buckwheat, Wild",55%
same,pest or weed control at 62 g/ha,"wild buckwheat [3]; 62 g ai/ha, scale 0-100, read-out: Plant response rating, Buckwheat, Wild",100%
same,pest or weed control at 125 g/ha,"wild buckwheat [3]; 125 g ai/ha, scale 0-100, read-out: Plant response rating, Buckwheat, Wild",100%
same,pest or weed control at 16 g/ha,"deadnettle; 16 g ai/ha, scale 0-100, read-out: Plant response rating, Deadnettle",40%
same,pest or weed control at 31 g/ha,"deadnettle; 31 g ai/ha, scale 0 to 100 (0 no effect, 100 complete control), read-out: Plant response rating, Deadnettle",45%
same,pest or weed control at 62 g/ha,"deadnettle; 62 g ai/ha, scale 0 to 100 (0 no effect, 100 complete control), read-out: Plant response rating, Deadnettle",50%
same,pest or weed control at 125 g/ha,"deadnettle; 125 g ai/ha, scale 0 to 100 (0 no effect, 100 complete control), read-out: Plant response rating, Deadnettle",65%
same,pest or weed control at 16 g/ha,"bromegrass, downy; 16 g ai/ha",5%
same,pest or weed control at 31 g/ha,"bromegrass, downy; 31 g ai/ha",5%
same,pest or weed control at 62 g/ha,"bromegrass, downy; 62 g ai/ha",10%
same,pest or weed control at 125 g/ha,"bromegrass, downy; 125 g ai/ha",20%
same,pest or weed control at 16 g/ha,"chamomile; 16 g ai/ha, scale 0 (no effect) to 100 (complete control), read-out: Plant response rating, Chamomile",0%
same,pest or weed control at 31 g/ha,"chamomile; 31 g ai/ha, scale 0-100, read-out: Plant response rating, Chamomile",70%
same,pest or weed control at 62 g/ha,"chamomile; 62 g ai/ha, scale 0-100, read-out: Plant response rating, Chamomile",55%
same,pest or weed control at 125 g/ha,"chamomile; 125 g ai/ha, scale 0-100, read-out: Plant response rating, Chamomile",60%
same,pest or weed control at 16 g/ha,wild buckwheat [4]; 16 g ai/ha,65%
same,pest or weed control at 31 g/ha,wild buckwheat [4]; 31 g ai/ha,75%
same,pest or weed control at 62 g/ha,wild buckwheat [4]; 62 g ai/ha,75%
same,pest or weed control at 125 g/ha,wild buckwheat [4]; 125 g ai/ha,85%
